These results are taken from patent US12234233B2, “Crystal form of phosphodiesterase inhibitor, preparation method therefor and use thereof” (TRANSTHERA SCIENCES (NANJING), INC., priority 2019, dated 2025).

The nature of data set [1]: Pharmacokinetic evaluation in rats. It is filed as in vivo, male SD rats. As for the experimental part:
Test substances: the compound of formula (I) was prepared by example 1 of the present invention, and the crystal form I was prepared by example 2 of the present invention.
Administration to Animals and Sample Collection:
the compound of formula (I) for the experiment was dissolved with 2% DMSO+10% PEG400+88% (28% HP-3-CD) physiological saline to prepare a solution; the solution of the test substance was administered to SD rats by gavage at a dose of 5.0 mg/kg; and the blood sampling time points were 15 min, 30 min, 1 h, 2 h, 4 h, 6 h, 8 h and 24 h after administration.
The compound of formula (I) for the experiment was dissolved with 2% DMSO+10% PEG400+88% (28% HP-3-CD) physiological saline to prepare a solution; the solution of the test substance was administered to SD rats by intravenous bolus at a dose of 1 mg/kg; and the blood sampling time points were 5 min, 15 min, 30 min, 1 h, 2 h, 4 h, 6 h, 8 h and 24 h after administration.
The crystal form I for the experiment was dissolved with 5% DMSO+10% PEG400+85% (20% captisol) physiological saline solution to prepare a solution; the solution of the test substance was administered to SD rats by gavage at a dose of 60.0 mg/kg; and the blood sampling time points were 15 min, 30 min, 1 h, 2 h, 4 h, 8 h, 24 h, 30 h and 48 h after administration.
The crystal form I for the experiment was dissolved with 2% DMSO+10% PEG400+88% (28% HP-β-CD) physiological saline to prepare a solution; the solution of the test substance was administered to SD rats by intravenous bolus at a dose of 5 mg/kg; and the blood sampling time points were 5 min, 15 min, 30 min, 1 h, 4 h, 8 h, 12 h and 24 h after administration.
Compound of formula (I): the ordinary SD rats were used and fixed; the tails of the rats were heated in a water bath 10 minutes before each time point; and about 100 μL of blood was collected via a tail vein, and then placed in an anticoagulation tube containing EDTA-K2. The blood sample was centrifuged at 8000 rpm at 4° C. for 6 min to obtain a plasma sample, which was prepared within 30 minutes after blood collection. The plasma was stored in a refrigerator at −80° C. before the test.
Crystal form I: the rats were subjected to jugular vein cannulation (JVC); each time, about 0.35 ml of blood was collected from the rats via a jugular vein cannula into a centrifuge tube containing 5 μl of 15% EDTA-K2; the mixture was gently mixed to obtain a homogeneous mixture, and then the centrifuge tube was placed in an ice bath immediately. Within 1 hour after collecting whole blood, the mixture was centrifuged at 4° C. and 2400×g for 5 minutes, and the supernatant was immediately collected to obtain a plasma sample. The plasma was stored in a refrigerator at −80° C. before the test.
the plasma sample to be tested was taken out from the −80° C. refrigerator, subjected to natural melting at room temperature, and then vortexed for 5 min; […] of the plasma sample was precisely pipetted into a 1.5 mL centrifuge tube; […] of the internal standard working solution (tolbutamide in methanol) at a concentration of 100 ng/mL was added, and the mixture was mixed homogeneously; the homogeneous mixture was vortexed for 5 min, and then centrifuged at 12000 rpm for 5 min; 50 μL of the supernatant was precisely pipetted into a 96-well plate pre-filled with 150 μL of water/well; and the plate was vortexed for 5 min for homogenization, and subjected to LC-MS/MS assay, with a sample loading volume of 5 μL. […]

Data set [2] in a line: Solubility in test solutions at different pHs and water. Format: physicochemical. Particulars: 37° C. As for the experimental part: Test substances: the compound of formula (I) was prepared by example 1 of the present invention, the crystal form I was prepared by example 2 of the present invention, the crystal form II was prepared by example 16 of the present invention, the crystal form III was prepared by example 20 of the present invention, the crystal form IV was prepared by example 24 of the present invention, the crystal form V was prepared by example 25 of the present invention, the crystal form VI was prepared by example 27 of the present invention, and the crystal form VII was prepared by example 31 of the present invention.
Preparation of Buffered Salt Solutions at Different pHs:
hydrochloric acid solution at pH 1.0:9 ml of hydrochloric acid was pipetted, and water was added for dilution to 1000 ml; the mixture was mixed homogeneously to obtain a hydrochloric acid solution at pH 1.03. Phosphate buffered solution at pH 4.5:1.56 g of sodium dihydrogen phosphate dihydrate was weighed, and 200 ml of water was added to obtain a phosphate buffered solution at pH 4.50. Phosphate buffered solution at pH 6.8:1.56 g of sodium dihydrogen phosphate dihydrate was weighed, and 200 ml of water was added; and the mixture was adjusted to pH 6.80 with 1 mol/L sodium hydroxide solution.
preparation of buffered solutions at different pHs (samples for determining solubility):
50 mg of each test substance was weighed, and 5 ml of the hydrochloric acid solution (pH 1.0) was added; and the mixture was mixed homogeneously with shaking. About 2.5 mg of each test substance was weighed, and 5 ml of the phosphate buffered solution (pH 4.5), 5 ml of the phosphate buffered solution (pH 6.8), and 5 ml of ultrapure water were added, respectively; the mixture was mixed homogeneously with shaking, and then placed in a 37° C. water bath shaker for shaking; the samples were collected at 24 hours and subjected to centrifugation; and the supernatant was taken and directly injected (if the solubility was high, the supernatant was diluted with a 0.1 mol/L hydrochloric acid solution to an appropriate multiple and then injected).
The solubility of the samples was quantitatively calculated according to the single-point external standard method.

Data set [3] is described as follows: Stability test of different crystal forms. It is filed as physicochemical. As for the experimental part: Test substances: the crystal form I was prepared by example 2 of the present invention, the crystal form II was prepared by example 16 of the present invention, the crystal form III was prepared by example 20 of the present invention, the crystal form IV was prepared by example 24 of the present invention, the crystal form V was prepared by example 25 of the present invention, the crystal form VI was prepared by example 27 of the present invention, and the crystal form VII was prepared by example 31 of the present invention.
Method: the appropriate amount of different test substances were taken, and placed at 105° C. for 3 days, and at 60° C. and RH 92.5% under light for 5 days and 10 days, respectively; and the samples were collected on day 0, day 3, day 5 and day 10 to investigate the changes in the trait and content of the samples.
Table 5 and Table 6 show the results of the trait and content after placement at 105° C. for 3 days. Table 7 and Table 8 show the results of the trait and content after placement at 60° C. and RH 92.5% under light for 5 days. Table 9 and Table 10 show the results of the trait and content after placement at RH 92.5% under light for 10 days.

The mark [4] stands for this setting: male SD rats, intravenous bolus 1 mg/kg.
[5] abbreviates: pH 1.0 hydrochloric acid solution.
The mark [6] stands for this setting: pH 4.5 phosphate buffered solution.
Setting [7] is: pH 6.8 phosphate buffered solution.

SMILES strings stand for the structures.

In the case of `CCc1cc2c(N3CCC(C)(OC)CC3)c(C#N)c(=O)[nH]c2cn1` [Compound of formula (I), 6-ethyl-4-(4-methoxy-4-methylpiperidin-1-yl)-2-oxo-1,2-dihydro-1,7-diazanaphthal ene-3-carbonitrile], the time of peak concentration (Tmax) in data set [1] (Sprague-Dawley, rat, plasma, po, male SD rats, gavage 5.0 mg/kg) was determined as 30 min. For the same molecule, the pharmacokinetic characteristics entry in data set [1] (conclusion from Table 2, rats) is “excellent pharmacokinetic characteristics”. In data set [1] (male SD rats, gavage 5.0 mg/kg), the “AUClast PO/Dose” value turned out to be 387.2 h*ng/mL per mg/kg and the “tz1/2 PO” value is 2.68 h. Also, in data set [1] (setting [4]), the “AUClast iv/Dose” value amounted to 748 h*ng/mL per mg/kg, the Cl_obs iv was determined as 24.2 mL/min/kg, the Vz_obs iv was determined as 2.13 L/kg and the tz1/2 iv is listed as 1.25 h. This molecule also gave a 24-hour solubility in data set [2] (Water) of 170 µg/mL. The molecule further came in with a 24-hour solubility in data set [2] (setting [5]) of 5270 µg/mL. The molecule further yielded a 24-hour solubility in data set [2] (setting [6]) of 160 µg/mL. Also, the 24-hour solubility in data set [2] (setting [7]) worked out at 160 µg/mL.
As for `CCc1cc2c(N3CCC(C)(OC)CC3)c(C#N)c(=O)[nH]c2cn1` [Crystal form VII, 6-ethyl-4-(4-methoxy-4-methylpiperidin-1-yl)-2-oxo-1,2-dihydro-1,7-diazanaphthal ene-3-carbonitrile], the 24-hour solubility in data set [2] (Water) turned out to be 150 µg/mL; in data set [2] (setting [5]) it was 7550 µg/mL; in data set [2] (setting [6]) it was 140 µg/mL; in data set [2] (setting [7]) it was 130 µg/mL. In addition, the Content amounted to 100.0% in data set [3] (0 day), 99.9% in data set [3] (Placed at 60° C. for 5 days), 100.0% in data set [3] (Placed at RH 92.5% for 5 days) and 99.6% in data set [3] (Placed under light for 5 days).
In the case of `CCc1cc2c(N3CCC(C)(OC)CC3)c(C#N)c(=O)[nH]c2cn1` [Crystal form VI, 6-ethyl-4-(4-methoxy-4-methylpiperidin-1-yl)-2-oxo-1,2-dihydro-1,7-diazanaphthal ene-3-carbonitrile], the 24-hour solubility worked out at 260 µg/mL in data set [2] (Water), 170 µg/mL in data set [2] (setting [6]) and 140 µg/mL in data set [2] (setting [7]). Moreover, the Content turned out to be 99.9% in data set [3] (0 day); 99.8% in data set [3] (Placed at 60° C. for 5 days); 99.7% in data set [3] (Placed at 105° C. for 3 days); 99.9% in data set [3] (Placed at RH 92.5% for 5 days); 99.6% in data set [3] (Placed under light for 5 days). Also, the Trait entry in data set [3] (0 day) and in data set [3] (Placed at 105° C. for 3 days) was “Yellow powder” in each case.
Take `CCc1cc2c(N3CCC(C)(OC)CC3)c(C#N)c(=O)[nH]c2cn1` [Crystal form II, 6-ethyl-4-(4-methoxy-4-methylpiperidin-1-yl)-2-oxo-1,2-dihydro-1,7-diazanaphthal ene-3-carbonitrile]: the 24-hour solubility in data set [2] (Water) came out at 160 µg/mL; in data set [2] (setting [5]), 4540 µg/mL; in data set [2] (setting [6]) it was 160 µg/mL; in data set [2] (setting [7]), 140 µg/mL. In addition, the Content amounted to 99.8% in data set [3] (0 day), 99.5% in data set [3] (Placed at 105° C. for 3 days), 99.8% in data set [3] (Placed at RH 92.5% for 10 days) and 99.4% in data set [3] (Placed under light for 10 days). Besides, the Trait result in data set [3] (0 day), in data set [3] (Placed at 105° C. for 3 days), in data set [3] (Placed at RH 92.5% for 10 days) and in data set [3] (Placed under light for 10 days) was “Yellow powder” each time.
Take `CCc1cc2c(N3CCC(C)(OC)CC3)c(C#N)c(=O)[nH]c2cn1` [Crystal form IV, 6-ethyl-4-(4-methoxy-4-methylpiperidin-1-yl)-2-oxo-1,2-dihydro-1,7-diazanaphthal ene-3-carbonitrile]: the 24-hour solubility in data set [2] (Water) stood at 140 µg/mL; in data set [2] (setting [5]), 1640 µg/mL; in data set [2] (setting [6]) it was 130 µg/mL; in data set [2] (setting [7]), 130 µg/mL. Moreover, the Content in data set [3] (0 day) is 90.9%; in data set [3] (Placed at RH 92.5% for 10 days) it was 90.8%; in data set [3] (Placed under light for 10 days), 90.9%. In addition, the Trait entry in data set [3] (0 day), in data set [3] (Placed at RH 92.5% for 10 days) and in data set [3] (Placed under light for 10 days) was “Yellow powder” throughout.
For the molecule `CCc1cc2c(N3CCC(C)(OC)CC3)c(C#N)c(=O)[nH]c2cn1` [Crystal form V, 6-ethyl-4-(4-methoxy-4-methylpiperidin-1-yl)-2-oxo-1,2-dihydro-1,7-diazanaphthal ene-3-carbonitrile], the 24-hour solubility in data set [2] (Water) came out at 330 µg/mL; in data set [2] (setting [5]), 4670 µg/mL; in data set [2] (setting [6]), 350 µg/mL; in data set [2] (setting [7]), 360 µg/mL. In addition, the Content in data set [3] (0 day) was 97.3%; in data set [3] (Placed at RH 92.5% for 10 days) it was 97.4%; in data set [3] (Placed under light for 10 days), 98.1%. Moreover, the Trait entry in data set [3] (0 day), in data set [3] (Placed at RH 92.5% for 10 days) and in data set [3] (Placed under light for 10 days) was “Yellow powder” in each case.
Take `CCc1cc2c(N3CCC(C)(OC)CC3)c(C#N)c(=O)[nH]c2cn1` [Crystal form III, 6-ethyl-4-(4-methoxy-4-methylpiperidin-1-yl)-2-oxo-1,2-dihydro-1,7-diazanaphthal ene-3-carbonitrile]: the 24-hour solubility came out at 230 µg/mL in data set [2] (Water), 150 µg/mL in data set [2] (setting [6]) and 120 µg/mL in data set [2] (setting [7]). In addition, the Content in data set [3] (0 day) is 99.9%; in data set [3] (Placed at 60° C. for 5 days) it was 99.9%; in data set [3] (Placed at 105° C. for 3 days), 99.7%; in data set [3] (Placed at RH 92.5% for 5 days), 99.9%; in data set [3] (Placed under light for 5 days), 99.8%. Also, the Trait result in data set [3] (0 day) and in data set [3] (Placed at 105° C. for 3 days) was “Yellow powder” throughout.

One may read the Tmax as the time at which the peak concentration occurs.
